Measurements from ChEMBL document CHEMBL5034019, “Discovery of the Next-Generation Pan-TRK Kinase Inhibitors for the Treatment of Cancer” (J Med Chem, 2021).
≈ marks a conversion by molar mass, not a printed value.

Experiments:
[1] = target: Voltage-gated inwardly rectifying potassium channel KCNH2 (Homo sapiens, UniProt Q12809); assay: Inhibition of human ERG
[2] = Apparent permeability across apical to basolateral side in human Caco-2 cells incubated for 2 hrs by LC-MS/MS analysis; type: ADME, cell-based
[3] = Metabolic stability in human liver microsomes assessed as intrinsic clearance at 1 uM by LC-MS/MS analysis; type: ADME, Microsome; settings: read-out: CLH
[4] = Metabolic stability in rat liver microsomes assessed as intrinsic clearance at 1 uM by LC-MS/MS analysis; type: ADME, Microsome; settings: read-out: CLH
[5] = Metabolic stability in mouse liver microsomes assessed as intrinsic clearance at 1 uM by LC-MS/MS analysis; type: ADME, Microsome; settings: read-out: CLH
[6] = Metabolic stability in dog liver microsomes assessed as intrinsic clearance at 1 uM by LC-MS/MS analysis; type: ADME, Canis lupus familiaris, Microsome; settings: read-out: CLH
[7] = Protein binding in human plasma assessed as unbound fraction by LC-MS/MS based equilibrium dialysis method; type: ADME, cell-free
[8] = Protein binding in rat plasma assessed as unbound fraction by LC-MS/MS based equilibrium dialysis method; type: ADME, cell-free
[9] = Protein binding in mouse plasma assessed as unbound fraction by LC-MS/MS based equilibrium dialysis method; type: ADME, cell-free
[10] = Protein binding in dog plasma assessed as unbound fraction by LC-MS/MS based equilibrium dialysis method; type: ADME, cell-free, Canis lupus familiaris
[11] = target: High affinity nerve growth factor receptor (Homo sapiens, UniProt P04629)
Chain of High affinity nerve growth factor receptor (Homo sapiens, UniProt P04629) (P04629 whole entry): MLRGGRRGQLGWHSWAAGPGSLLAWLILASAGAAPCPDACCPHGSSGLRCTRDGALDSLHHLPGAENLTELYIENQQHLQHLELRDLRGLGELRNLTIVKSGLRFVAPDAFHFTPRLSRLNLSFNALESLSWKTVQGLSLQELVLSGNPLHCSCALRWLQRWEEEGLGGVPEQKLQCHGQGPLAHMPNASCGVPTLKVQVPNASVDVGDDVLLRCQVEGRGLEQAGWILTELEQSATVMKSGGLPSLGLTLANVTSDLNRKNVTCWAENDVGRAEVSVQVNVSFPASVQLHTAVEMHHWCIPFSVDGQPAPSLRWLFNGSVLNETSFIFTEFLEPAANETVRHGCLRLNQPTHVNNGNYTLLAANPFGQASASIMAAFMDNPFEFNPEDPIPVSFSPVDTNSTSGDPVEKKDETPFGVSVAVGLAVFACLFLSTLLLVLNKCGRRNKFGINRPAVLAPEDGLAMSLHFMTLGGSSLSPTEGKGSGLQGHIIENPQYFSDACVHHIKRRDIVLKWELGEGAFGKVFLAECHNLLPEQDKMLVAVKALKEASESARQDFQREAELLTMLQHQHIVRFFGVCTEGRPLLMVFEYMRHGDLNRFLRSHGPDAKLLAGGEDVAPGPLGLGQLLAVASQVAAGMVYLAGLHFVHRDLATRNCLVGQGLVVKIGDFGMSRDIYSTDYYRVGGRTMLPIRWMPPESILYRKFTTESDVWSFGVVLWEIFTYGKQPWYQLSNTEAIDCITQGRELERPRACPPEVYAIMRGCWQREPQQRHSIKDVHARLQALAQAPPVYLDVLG
Description: Inhibition of TrKA (unknown origin) incubated for 120 mins in presence of 33P-ATP

BaF3 [12] = assay: Cytotoxicity against mouse BaF3 cells transfected with TrKA G595R mutant assessed as reduction in cell viability by MTT assay; type: functional, cell-based
BaF3 [13] = assay: Cytotoxicity against mouse BaF3 cells transfected with TrKA G623R mutant assessed as reduction in cell viability by MTT assay; type: functional, cell-based
BaF3 [14] = assay: Cytotoxicity against mouse BaF3 cells transfected with SLC34A2-Ros1 assessed as reduction in cell viability by MTT assay; type: functional, cell-based
[15] = target: High affinity nerve growth factor receptor (Homo sapiens, UniProt P04629, G595R)
Chain of High affinity nerve growth factor receptor (Homo sapiens, UniProt P04629, G595R) (P04629 33-796 G595R limits assumed): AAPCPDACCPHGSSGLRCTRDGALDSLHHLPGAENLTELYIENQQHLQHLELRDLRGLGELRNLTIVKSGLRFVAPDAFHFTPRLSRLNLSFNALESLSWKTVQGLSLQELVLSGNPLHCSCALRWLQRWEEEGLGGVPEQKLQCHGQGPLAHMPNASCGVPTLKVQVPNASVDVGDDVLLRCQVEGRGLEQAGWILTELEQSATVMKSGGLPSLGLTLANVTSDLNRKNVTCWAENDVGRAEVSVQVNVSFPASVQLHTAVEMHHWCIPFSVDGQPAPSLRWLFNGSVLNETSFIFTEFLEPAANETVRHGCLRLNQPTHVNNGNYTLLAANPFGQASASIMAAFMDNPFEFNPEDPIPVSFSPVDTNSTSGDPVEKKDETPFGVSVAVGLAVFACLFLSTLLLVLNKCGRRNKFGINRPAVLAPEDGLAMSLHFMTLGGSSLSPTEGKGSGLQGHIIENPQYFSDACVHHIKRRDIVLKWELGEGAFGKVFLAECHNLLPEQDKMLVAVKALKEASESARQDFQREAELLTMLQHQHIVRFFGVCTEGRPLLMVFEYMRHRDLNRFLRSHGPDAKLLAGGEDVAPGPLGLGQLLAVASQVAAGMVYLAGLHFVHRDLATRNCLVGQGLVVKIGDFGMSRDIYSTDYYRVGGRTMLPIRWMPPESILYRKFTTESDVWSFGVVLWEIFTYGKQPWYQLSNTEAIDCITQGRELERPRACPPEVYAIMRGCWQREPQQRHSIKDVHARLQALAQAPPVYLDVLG

[16] = target: ALK tyrosine kinase receptor (Homo sapiens, UniProt Q9UM73)
Chain of ALK tyrosine kinase receptor (Q9UM73 whole entry): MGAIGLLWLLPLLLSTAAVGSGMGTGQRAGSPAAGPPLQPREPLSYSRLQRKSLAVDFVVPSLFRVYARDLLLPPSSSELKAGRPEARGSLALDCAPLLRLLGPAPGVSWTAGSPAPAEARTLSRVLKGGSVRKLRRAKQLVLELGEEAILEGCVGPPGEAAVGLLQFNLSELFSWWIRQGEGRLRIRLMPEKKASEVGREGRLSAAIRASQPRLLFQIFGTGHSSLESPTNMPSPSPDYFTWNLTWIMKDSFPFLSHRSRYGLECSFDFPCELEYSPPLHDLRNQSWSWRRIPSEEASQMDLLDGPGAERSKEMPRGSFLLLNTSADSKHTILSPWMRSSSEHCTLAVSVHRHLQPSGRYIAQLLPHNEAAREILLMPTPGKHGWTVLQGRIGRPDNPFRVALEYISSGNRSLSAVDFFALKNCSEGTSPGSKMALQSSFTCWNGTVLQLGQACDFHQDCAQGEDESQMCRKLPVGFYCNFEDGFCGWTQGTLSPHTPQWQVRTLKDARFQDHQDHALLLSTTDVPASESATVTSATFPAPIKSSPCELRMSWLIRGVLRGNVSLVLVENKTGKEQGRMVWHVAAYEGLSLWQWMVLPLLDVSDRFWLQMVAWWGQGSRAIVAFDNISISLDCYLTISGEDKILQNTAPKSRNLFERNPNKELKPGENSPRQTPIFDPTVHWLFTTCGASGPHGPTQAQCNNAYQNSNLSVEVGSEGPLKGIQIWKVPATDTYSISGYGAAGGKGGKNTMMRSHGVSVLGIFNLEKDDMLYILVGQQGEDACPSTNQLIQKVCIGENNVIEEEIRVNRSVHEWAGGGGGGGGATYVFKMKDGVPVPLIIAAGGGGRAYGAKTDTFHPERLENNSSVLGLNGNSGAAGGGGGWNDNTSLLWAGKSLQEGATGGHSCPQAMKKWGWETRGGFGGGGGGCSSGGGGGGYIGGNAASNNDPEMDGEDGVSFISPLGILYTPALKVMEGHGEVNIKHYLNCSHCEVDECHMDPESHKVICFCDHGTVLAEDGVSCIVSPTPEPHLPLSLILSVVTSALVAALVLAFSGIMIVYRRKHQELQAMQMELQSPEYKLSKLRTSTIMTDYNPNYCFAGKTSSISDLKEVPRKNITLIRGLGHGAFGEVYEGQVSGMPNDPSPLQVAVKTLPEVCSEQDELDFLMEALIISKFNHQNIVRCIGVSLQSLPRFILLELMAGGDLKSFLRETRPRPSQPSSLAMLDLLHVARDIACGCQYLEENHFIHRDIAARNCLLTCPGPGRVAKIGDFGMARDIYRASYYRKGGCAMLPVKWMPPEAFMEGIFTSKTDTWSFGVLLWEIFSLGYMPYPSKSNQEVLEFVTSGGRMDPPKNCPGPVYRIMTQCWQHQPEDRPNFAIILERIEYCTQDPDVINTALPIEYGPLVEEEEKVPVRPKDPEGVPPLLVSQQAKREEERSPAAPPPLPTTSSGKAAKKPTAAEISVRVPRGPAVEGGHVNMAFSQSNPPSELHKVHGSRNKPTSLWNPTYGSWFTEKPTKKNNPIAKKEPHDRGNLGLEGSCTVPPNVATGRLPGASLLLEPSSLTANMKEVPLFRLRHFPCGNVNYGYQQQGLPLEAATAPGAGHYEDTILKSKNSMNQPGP
Description: Inhibition of ALK (unknown origin) incubated for 120 mins in presence of 33P-ATP

[17] = Kinetic solubility of the compound; type: physicochemical; settings: read-out: Kinetic_solubility
Cytochrome P450 1A2 = target: T1, Cytochrome P450 1A2 (Homo sapiens, UniProt P05177); assay: Inhibition of CYP1A2 in human pooled liver microsomes using phenacetin as substrate in presence of NADPH by LC-MS/MS analysis; type: ADME
T1 sequence (P05177 whole entry): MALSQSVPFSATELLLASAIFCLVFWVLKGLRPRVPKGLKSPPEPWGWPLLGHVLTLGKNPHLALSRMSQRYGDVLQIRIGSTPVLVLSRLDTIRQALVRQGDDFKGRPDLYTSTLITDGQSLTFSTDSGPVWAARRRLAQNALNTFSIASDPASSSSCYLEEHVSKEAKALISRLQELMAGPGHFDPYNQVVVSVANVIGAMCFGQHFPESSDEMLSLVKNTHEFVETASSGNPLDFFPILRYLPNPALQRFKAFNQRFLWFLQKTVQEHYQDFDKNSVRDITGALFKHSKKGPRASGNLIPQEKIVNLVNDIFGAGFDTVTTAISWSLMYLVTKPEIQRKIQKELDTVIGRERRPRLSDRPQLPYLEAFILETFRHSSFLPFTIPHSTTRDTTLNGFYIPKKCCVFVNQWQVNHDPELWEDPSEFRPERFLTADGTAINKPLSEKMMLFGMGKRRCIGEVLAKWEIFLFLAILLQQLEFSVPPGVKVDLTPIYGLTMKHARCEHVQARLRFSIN

Cytochrome P450 2C9 = Cytochrome P450 2C9 (Homo sapiens, UniProt P11712); assay: Inhibition of CYP2C9 in human pooled liver microsomes using diclofenac as substrate in presence of NADPH by LC-MS/MS analysis; type: ADME
Chain of Cytochrome P450 2C9 (P11712 whole entry): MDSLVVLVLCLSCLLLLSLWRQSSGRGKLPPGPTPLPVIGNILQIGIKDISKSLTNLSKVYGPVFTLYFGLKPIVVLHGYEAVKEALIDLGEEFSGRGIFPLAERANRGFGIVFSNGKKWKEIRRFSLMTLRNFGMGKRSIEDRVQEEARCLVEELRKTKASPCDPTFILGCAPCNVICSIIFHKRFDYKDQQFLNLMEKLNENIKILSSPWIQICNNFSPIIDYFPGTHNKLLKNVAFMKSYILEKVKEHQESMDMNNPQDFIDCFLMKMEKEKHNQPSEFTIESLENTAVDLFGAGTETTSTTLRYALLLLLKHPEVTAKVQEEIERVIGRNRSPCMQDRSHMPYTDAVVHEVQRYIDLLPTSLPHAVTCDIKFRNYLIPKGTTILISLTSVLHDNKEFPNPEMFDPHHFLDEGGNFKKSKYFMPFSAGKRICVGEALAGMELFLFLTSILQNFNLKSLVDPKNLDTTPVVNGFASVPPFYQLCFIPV

Cytochrome P450 2C19 = Cytochrome P450 2C19 (Homo sapiens, UniProt P33261); assay: Inhibition of CYP2C19 in human pooled liver microsomes using S-mephenytoin as substrate in presence of NADPH by LC-MS/MS analysis; type: ADME
Cytochrome P450 2D6 = Cytochrome P450 2D6 (Homo sapiens, UniProt P10635); assay: Inhibition of CYP2D6 in human pooled liver microsomes using dextromethorphan as substrate in presence of NADPH by LC-MS/MS analysis; type: ADME
Cytochrome P450 3A4 = Cytochrome P450 3A4 (Homo sapiens, UniProt P08684); assay: Inhibition of CYP3A4 in human pooled liver microsomes using midazolam and testosterone as substrate in presence of NADPH by LC-MS/MS analysis; type: ADME
[18] = C0 in Sprague-Dawley rat at 3 mg/kg measured up to 24 hrs by LC/MS/MS analysis; type: ADME, organism-based; settings: in vivo
[19] = Half life in Sprague-Dawley rat at 3 mg/kg measured up to 24 hrs by LC-MS/MS analysis; type: ADME, organism-based; settings: in vivo
[20] = Volume of distribution in Sprague-Dawley rat at 3 mg/kg measured up to 24 hrs by LC-MS/MS analysis; type: ADME, organism-based; settings: in vivo
[21] = Clearance in Sprague-Dawley rat at 3 mg/kg measured up to 24 hrs by LC/MS/MS analysis; type: ADME, organism-based; settings: in vivo
[22] = AUC (0 to t) in Sprague-Dawley rat at 3 mg/kg measured up to 24 hrs by LC-MS/MS analysis; type: ADME, organism-based; design: dose 3 mg/kg, time <=24; settings: in vivo
[23] = Cmax in Sprague-Dawley rat at 10 mg/kg, po measured up to 24 hrs by LC-MS/MS analysis; type: ADME, organism-based; design: route oral, dose 10 mg/kg, time <=24; settings: in vivo
[24] = Tmax in Sprague-Dawley rat at 10 mg/kg, po measured up to 24 hrs by LC-MS analysis; type: ADME, organism-based; settings: in vivo
[25] = AUC (0 to t) in Sprague-Dawley rat at 10 mg/kg, po measured up to 24 hrs by LC-MS/MS analysis; type: ADME, organism-based; design: route oral, dose 10 mg/kg, time <=24; settings: in vivo
[26] = Oral bioavailability in Sprague-Dawley rat at 10 mg/kg measured up to 24 hrs by LC/MS/MS analysis; type: ADME, organism-based; settings: in vivo
BaF3 [27] = assay: Cytotoxicity against mouse BaF3 cells transfected with TrKA F589L mutant assessed as reduction in cell viability by MTT assay; type: functional, cell-based
BaF3 [28] = assay: cells; settings: Mus musculus
Description: Cytotoxicity against mouse BaF3 cells transfected with TrKA assessed as reduction in cell viability by MTT assay

Chain of Voltage-gated inwardly rectifying potassium channel KCNH2 (Q12809 whole entry): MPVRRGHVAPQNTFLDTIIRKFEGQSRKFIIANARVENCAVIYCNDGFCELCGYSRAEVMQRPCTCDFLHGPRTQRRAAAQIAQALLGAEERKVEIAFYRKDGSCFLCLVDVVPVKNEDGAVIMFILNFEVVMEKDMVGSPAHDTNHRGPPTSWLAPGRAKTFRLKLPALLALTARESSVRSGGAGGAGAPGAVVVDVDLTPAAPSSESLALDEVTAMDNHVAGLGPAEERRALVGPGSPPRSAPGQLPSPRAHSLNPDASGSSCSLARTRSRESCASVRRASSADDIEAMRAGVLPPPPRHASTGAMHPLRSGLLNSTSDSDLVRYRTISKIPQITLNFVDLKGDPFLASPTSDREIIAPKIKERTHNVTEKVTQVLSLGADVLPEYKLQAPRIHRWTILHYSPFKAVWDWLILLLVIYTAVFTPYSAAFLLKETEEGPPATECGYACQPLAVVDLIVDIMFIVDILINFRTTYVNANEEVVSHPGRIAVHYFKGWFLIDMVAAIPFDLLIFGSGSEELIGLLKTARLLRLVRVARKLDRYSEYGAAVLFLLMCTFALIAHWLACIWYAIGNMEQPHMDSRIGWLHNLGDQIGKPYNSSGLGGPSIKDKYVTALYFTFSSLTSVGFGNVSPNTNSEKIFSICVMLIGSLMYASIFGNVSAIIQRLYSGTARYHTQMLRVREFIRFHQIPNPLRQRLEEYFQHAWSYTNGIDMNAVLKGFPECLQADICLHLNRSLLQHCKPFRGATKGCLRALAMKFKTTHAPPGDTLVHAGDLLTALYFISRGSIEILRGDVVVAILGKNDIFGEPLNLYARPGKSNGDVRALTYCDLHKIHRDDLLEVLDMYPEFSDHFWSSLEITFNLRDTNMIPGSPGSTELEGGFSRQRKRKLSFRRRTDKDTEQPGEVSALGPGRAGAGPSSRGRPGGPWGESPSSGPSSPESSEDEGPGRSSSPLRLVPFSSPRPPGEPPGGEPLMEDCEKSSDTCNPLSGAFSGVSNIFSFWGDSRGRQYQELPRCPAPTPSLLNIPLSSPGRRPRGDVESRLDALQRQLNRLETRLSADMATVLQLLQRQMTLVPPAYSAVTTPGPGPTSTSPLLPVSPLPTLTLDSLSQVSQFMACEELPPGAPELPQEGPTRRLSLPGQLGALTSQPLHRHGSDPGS

Row | Structure (SMILES) | Papp A→B at 2 h [2] | CLint scaled at 1 µM [3] | CLint scaled at 1 µM [4] | CLint scaled at 1 µM [5] | CLint scaled at 1 µM [6] | fraction unbound [7] | fraction unbound [8] | fraction unbound [9] | fraction unbound [10] | IC50 [11] | further results
1 | C[C@H]1NC(=O)c2cnn3ccc(nc23)N[C@H](C)c2cc(F)ccc2NC1=O |  |  |  |  |  |  |  |  |  | 846 nM | 
2 | C[C@H]1Nc2ccn3ncc(c3n2)C(=O)N2CCN(CC2)c2ccc(F)cc21 |  |  |  |  |  |  |  |  |  | > 1000 nM | 
3 | C[C@H]1CNS(=O)(=O)c2cnn3ccc(nc23)N[C@H](C)c2cc(F)ccc2O1 |  |  |  |  |  |  |  |  |  | > 1000 nM | 
4 | C[C@H]1CNC(=O)c2cnn3ccc(nc23)N[C@H](C)c2cc(F)ccc2O1 [REPOTRECTINIB] | 0.9 ×10⁻⁶ cm/s | 29 mL/min/kg | 49 mL/min/kg | 982 mL/min/kg | 21 mL/min/kg | 0.05 | 0.06 | 0.05 | 0.09 |  | solubility kinetic [17]: 65.8 µM (≈ 23.4 µg/mL); IC50 (Cytochrome P450 1A2): > 50 µM; IC50 (Cytochrome P450 2C9): 6.4 µM; IC50 (Cytochrome P450 2C19): 12.3 µM; IC50 (Cytochrome P450 2D6): 28.5 µM; IC50 (Cytochrome P450 3A4): > 50 µM; C0 [18]: 12.87 µM; half-life [19]: 168 min; Vd [20]: 1.1 L/kg; clearance [21]: 9.4 mL/min/kg; AUC(0-t) at 24 h [22]: 15 µM·h; Cmax [23]: 16.9 µM; Tmax [24]: 48 min; AUC(0-t) at 24 h [25]: 59.7 µM·h; bioavailability [26]: 119%; IC50 (BaF3 [12]): 8 nM; IC50 (BaF3 [27]): 0.7 nM; IC50 (BaF3 [13]): 4.8 nM; IC50 (BaF3 [14]): 2.2 nM; IC50 (BaF3 [28]): 1.8 nM

Second part, led by results:

Row | Papp A→B at 2 h [2] | CLint scaled at 1 µM [3] | CLint scaled at 1 µM [4] | CLint scaled at 1 µM [5] | CLint scaled at 1 µM [6] | fraction unbound [7] | fraction unbound [8] | fraction unbound [9] | fraction unbound [10] | IC50 [11] | Structure (SMILES) | further results
5 | 3.9 ×10⁻⁶ cm/s | 43 mL/min/kg | 29 mL/min/kg | 342 mL/min/kg | 74 mL/min/kg | 0.36 | 0.3 | 0.28 | 0.34 |  | O=C1NC2(CC2)COc2ncc(F)cc2[C@H]2CNCCN2c2ccn3ncc1c3n2 | IC50 [1]: 6.7 µM
6 |  |  |  |  |  |  |  |  |  | > 1000 nM | C[C@H]1Nc2ccn3ncc(c3n2)C(=O)N2CCC(CC2)c2ccc(F)cc21 | 
7 |  |  |  |  |  |  |  |  |  | 67.5 nM | C[C@@H]1COc2ncc(F)cc2C23CC2CCN3c2ccn3ncc(c3n2)C(=O)N1 (some centres undefined) | 
8 | 16.3 ×10⁻⁶ cm/s | 242 mL/min/kg | 980 mL/min/kg | 1010 mL/min/kg | 268 mL/min/kg | 0.02 | 0.02 | 0.02 | 0.03 | 3.2 nM | O=C1NC2(CC2)COc2ncc(F)cc2[C@H]2CCCCN2c2ccn3ncc1c3n2 | IC50 (BaF3 [12]): 0.4 nM; IC50 (BaF3 [13]): 5.8 nM; IC50 (BaF3 [14]): 12.6 nM; IC50 [15]: 2.1 nM; IC50 [16]: 18.5 nM
